Test results reported in article PMC9023544, “Ketone-selenoesters as potential anticancer and multidrug resistance modulation agents in 2D and 3D ovarian and breast cancer in vitro models” (Scientific Reports, 2022).

Experiments:
[1] = target: T1, human recombinant P-gp membrane fraction (Homo sapiens, UniProt P08183); assay: P-gp-Glo assay, verapamil-stimulated P-gp ATPase activity; format: biochemical; conditions: for IC50: read-out: IC50, verapamil-stimulated P-glycoprotein ATPase activity; for mechanism of P-gp inhibition: with and without verapamil
T1 construct: purchased Promega
T1 sequence (P08183 whole entry): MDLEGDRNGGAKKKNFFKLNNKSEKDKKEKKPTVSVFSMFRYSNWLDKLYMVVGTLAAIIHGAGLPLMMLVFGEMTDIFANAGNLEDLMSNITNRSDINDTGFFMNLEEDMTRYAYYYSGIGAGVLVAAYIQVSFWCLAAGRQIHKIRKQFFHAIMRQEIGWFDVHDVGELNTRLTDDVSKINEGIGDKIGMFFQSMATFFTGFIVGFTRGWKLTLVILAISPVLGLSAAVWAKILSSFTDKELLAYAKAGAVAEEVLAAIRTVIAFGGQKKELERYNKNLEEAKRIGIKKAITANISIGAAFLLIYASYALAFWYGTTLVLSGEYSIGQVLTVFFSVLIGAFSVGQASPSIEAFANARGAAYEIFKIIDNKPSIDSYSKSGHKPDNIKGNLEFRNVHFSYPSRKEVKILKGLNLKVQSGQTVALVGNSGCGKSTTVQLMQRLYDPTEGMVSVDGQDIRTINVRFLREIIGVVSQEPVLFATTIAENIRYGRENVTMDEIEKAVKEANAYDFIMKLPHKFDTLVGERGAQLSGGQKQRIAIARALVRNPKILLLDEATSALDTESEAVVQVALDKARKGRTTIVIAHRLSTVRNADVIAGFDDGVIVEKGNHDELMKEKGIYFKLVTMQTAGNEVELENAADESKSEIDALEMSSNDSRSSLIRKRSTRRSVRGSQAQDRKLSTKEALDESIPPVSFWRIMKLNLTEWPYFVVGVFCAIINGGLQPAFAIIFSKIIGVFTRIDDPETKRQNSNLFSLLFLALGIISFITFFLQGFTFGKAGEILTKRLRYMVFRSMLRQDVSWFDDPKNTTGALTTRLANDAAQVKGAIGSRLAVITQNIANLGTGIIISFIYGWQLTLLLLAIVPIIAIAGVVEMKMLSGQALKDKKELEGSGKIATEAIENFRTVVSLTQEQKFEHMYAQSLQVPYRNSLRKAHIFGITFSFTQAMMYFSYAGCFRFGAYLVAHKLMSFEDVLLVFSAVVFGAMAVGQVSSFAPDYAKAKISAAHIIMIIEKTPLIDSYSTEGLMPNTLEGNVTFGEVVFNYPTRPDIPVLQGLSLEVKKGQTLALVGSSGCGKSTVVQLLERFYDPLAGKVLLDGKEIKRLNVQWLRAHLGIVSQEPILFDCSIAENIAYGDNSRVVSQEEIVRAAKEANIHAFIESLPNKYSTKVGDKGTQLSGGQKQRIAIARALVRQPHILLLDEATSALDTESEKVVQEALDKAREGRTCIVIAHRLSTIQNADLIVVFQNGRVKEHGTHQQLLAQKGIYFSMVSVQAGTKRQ
Experimental: P-gp Glo™ Assay System represents a bioluminescent assay for the detection of P-gp ATPase activity. […] The activity of P-gp is inversely proportional to the luciferase-generated luminescent signal of unmetabolized ATP. For the detection of P-gp inhibitory potential, the compounds (concentration range 12.5–100 µM) were tested for their capacity to inhibit verapamil-stimulated P-gp ATPase activity in a competitive mode.
Using ATP standard curve and linear regression, the average amount of ATP consumed in presence of each compound was calculated. Afterwards, the specific P-gp activity (consumed ATP) was plotted versus the concentrations of the test compound and IC50 values were determined (Table 6). By using one-way ANOVA analysis, the statistical differences between compounds were identified; the compounds with the most statistically significant inhibition capacity was K3, followed by K4 and K7.
The modulation of P-glycoprotein ATPase activity was performed according to the manufacturer’s guidelines[54] and previously published work[55]. […] The reduction of verapamil-stimulated ATPase activity by selenoesters can indicate them as P-gp ATPase inhibitors. The reaction was initiated with 10 µL of MgATP (5 mM) addition to the final 50 µL volume. After 1 h incubation at 37 °C, the ATPase reaction was stopped with 50 µL of ATP detection reagent and subsequently the plate was incubated for 20 min at room temperature. Thanks to the luciferase reaction, it was possible to detect the remaining non-metabolized ATP as the luminescent signal. By using ATP standards and linear regression, the relative luminescent values (RLU) were converted to ATP concentration per reaction; and the amount of consumed ATP by the compounds was calculated.

MCF-7/PAX spheroids = assay: Sensitization of resistant 3D spheroids to paclitaxel; format: cell-based, human; conditions: paclitaxel IC50 / paclitaxel + selenoester IC50; K3 3 µM, K4 3 µM, K7 5 µM; 72 h
Experimental: (§1) In the previous section, the cytotoxic activity of selenoesters was determined against several 3D models of sensitive and resistant cell lines. Subsequently, the selenoesters were tested for their potential to sensitize the drug-resistant HOC/ADR and MCF-7/PAX spheroids. Mature 72 h old spheroids were incubated with the non-toxic concentration of selenoesters with Adriamycin or paclitaxel (concentration range 0.6–80 µM) for HOC/ADR or MCF-7/PAX, respectively (Table 8). After another 72 h incubation, the sensitization rate (fold change) was evaluated. […] The highest sensitization rate of ovarian spheroids (HOC/ADR) was induced by 5 µM K4, followed by 5 µM K7, and 3 µM K3.
(§2) To determine the sensitization potential of compounds, HOC/ADR and MCF-7/PAX were seeded into the ultra-low attachment 96-well plates (Sigma-Aldrich) at a cell density 0.5 × 10^5 cells/mL. After 3 days of spheroid formation, spheroids were carefully washed once with PBS and fresh DMEM medium (99 µL) containing the appropriate concentration of compounds K3, K4, K7 was added. Using a binary serial compound dilution, the concentration range of both cytostatics was prepared in the new 96-well plates (0.06–8 mM). After 1 µL transfer of cytostatics into the corresponding cell line, the final concentration range were 0.6–80 µM. The required volume of DMSO (1% V/V) was added to the positive control. After an incubation of 72 h, 100 µL of CellTiter-Glo 3D Reagent (Promega) was added to each well. Plates with spheroids were incubated for 25 min at room temperature. Afterwards, the luminescent signal was recorded.

HOC/ADR spheroids = assay: Sensitization of resistant 3D spheroids to Adriamycin; format: cell-based, human; conditions: Adriamycin IC50 / Adriamycin + selenoester IC50; K3 3 µM, K4 5 µM, K7 5 µM; 72 h
Experimental: as §1, §2

## CC(=O)C[Se]C(=O)c1ccccc1C(F)(F)F [K4]
[1]
  IC50: 23 ± 0.2 µM
MCF-7/PAX spheroids
  MCF-7/PAX Fold change (3D): (1.0 ± 0.1)×
HOC/ADR spheroids
  HOC/ADR Fold change (3D): (2.3 ± 0.1)×

## CC(=O)C[Se]C(=O)c1ccc(Br)cc1 [K3]
[1]; K3 50 µM versus Na3VO4 100 µM
  inhibition of verapamil-stimulated P-gp ATPase activity (luminescent signal): more effectively inhibited than sodium orthovanadate
[1]
  IC50: 11.7 ± 1 µM
  mechanism of P-gp inhibition: competitively inhibits efflux of another substrate
MCF-7/PAX spheroids
  MCF-7/PAX Fold change (3D): (0.9 ± 0.0)×
HOC/ADR spheroids
  HOC/ADR Fold change (3D): (1.2 ± 0.2)×

## CC(=O)C[Se]C(=O)c1ccc(C(C)(C)C)cc1 [K7]
[1]
  IC50: 25.7 ± 0.6 µM
  mechanism of P-gp inhibition: non-competitive P-gp inhibitor
MCF-7/PAX spheroids
  MCF-7/PAX Fold change (3D): (1.1 ± 0.1)×
HOC/ADR spheroids
  HOC/ADR Fold change (3D): (1.6 ± 0.1)×
